Here are results for 13 molecules from article PMC11833358 (Food Chemistry: X, 2025).

Data set [1] relates to Caco-2 cell monolayer. The note with it: for ER (efflux ratio, Papp(BL→AP)/Papp(AP→BL)) / Papp (AP→BL) / Papp (BL→AP): constituent of DS 100 μg/mL, 180 min; for Papp (AP→BL) / Papp (BL→AP): from UPLC-ESI-MS/MS peak areas.
Another data set can be described thus: in vitro. The note with it: human, Caco-2.
For data set [2], the system named is Caco-2 cell monolayer. The note with it: literature report; ref Chen et al., 2021; cited from earlier work.
Data set [3] concerns Caco-2 cell monolayer. The data set can be described thus: Phenol red flux and apparent permeability across Caco-2 cell monolayer. The note with it: AP→BL, 60 min, 5 μg/mL phenol red. Type of data set: in vitro ADME, human. In general terms: Passage across Caco-2 layers is used to estimate intestinal permeability.

Values joined by “and” are separate entries in the source; they are usually repeats but may differ in a detail not shown here. Identical values can stand only once. Marks after values point to notes of the source that are not given here.

As to “5,2′-Dihydroxy-7,8-dimethoxyflavone glycoside”, in the data set on Caco-2 cell monolayer [1], the “ER (efflux ratio, Papp(BL→AP)/Papp(AP→BL))” value is reported as 2.29; the “Papp (AP→BL)” value is 3.05 10^−6 cm/s; the “Papp (BL→AP)” value was 6.97 10^−6 cm/s.

Regarding `COc1cc(-c2oc3cc(O)c(OC)c(O)c3c(=O)c2OC)cc(OC)c1O` [5,7,4′-Trihydroxy-3,6,3′,5′-tetramethoxyflavone], in “in vitro”, the Papp A→B at 180 min, 100 μg/mL was 3.24 ×10⁻⁶ cm/s; the apparent permeability from basolateral to apical (Papp B→A) at 180 min, 100 μg/mL was determined as 23.1 ×10⁻⁶ cm/s; the efflux ratio at 180 min, 100 μg/mL stood at 7.13. Further, the “Differential metabolite TSA vs. TSB” value in the data set on Caco-2 cell monolayer [1] (VIP ≥ 1, p < 0.05, fold change >2.0 or < 0.5) is “upregulated”.

Take `COc1ccc2c(c1)OCC(=Cc1cccnc1)C2=O` [7-Methoxy-3-[1-(3-pyridyl)methylidene]-4-chromanone]: in the data set “in vitro”, the basolateral-to-apical permeability (Papp B→A) at 180 min, 100 μg/mL is 2.81 ×10⁻⁶ cm/s and the efflux ratio at 180 min, 100 μg/mL worked out at 0.13. For the same molecule, the “Papp (AP→BL)” value in the data set with Caco-2 cell monolayer [1] is reported as 20.87 10^−6 cm/s.

As for `COc1cc(C[C@H]2C(=O)OC[C@@H]2Cc2ccc(OC)c(OC)c2)ccc1O` [Arctigenin], in the data set “in vitro”, the Papp A→B at 180 min, 100 μg/mL was 5.37 ×10⁻⁶ cm/s; the Papp B→A at 180 min, 100 μg/mL was 25.2 ×10⁻⁶ cm/s; the efflux ratio at 180 min, 100 μg/mL was 4.69.

In “in vitro”, `O=c1c(O[C@@H]2O[C@H](CO)[C@@H](O)[C@H](O)[C@H]2O)c(-c2ccc(O)cc2)oc2cc(O)cc(O)c12` [Astragalin] showed a Papp A→B at 180 min, 100 μg/mL of 0.78 ×10⁻⁶ cm/s and a Papp B→A at 180 min, 100 μg/mL of 4.26 ×10⁻⁶ cm/s.

As to `COc1cc([C@@H]2Oc3c(OC)cc(CCCO)cc3[C@H]2CO)ccc1O` [Dihydrodehydrodiconiferyl alcohol], in “in vitro”, the Papp A→B at 180 min, 100 μg/mL came to 3.24 ×10⁻⁶ cm/s and the Papp B→A at 180 min, 100 μg/mL was 18.3 ×10⁻⁶ cm/s.

Turning to `COc1ccc(-c2cc(=O)c3c(O)c(OC)c(OC)cc3o2)cc1O` [Eupatorin], in the data set “in vitro”, the Papp A→B at 180 min, 100 μg/mL worked out at 2.17 ×10⁻⁶ cm/s and the Papp B→A at 180 min, 100 μg/mL stood at 17.3 ×10⁻⁶ cm/s.

For the molecule `COc1cc(/C=C/C(=O)O)ccc1O` [Ferulic acid], the Mode of translocation result with Caco-2 cell monolayer [2] is given as “active transport”. Also, in the data set on Caco-2 cell monolayer [1], the “ER (efflux ratio, Papp(BL→AP)/Papp(AP→BL))” value turned out to be 2.25; the “Papp (AP→BL)” value is 17.37 10^−6 cm/s; the “Papp (BL→AP)” value is listed as 39.16 10^−6 cm/s.

In “in vitro”, `COc1ccc(/C=C/C(=O)O)cc1O` [Isoferulic acid] displayed a Papp B→A at 180 min, 100 μg/mL of 49.5 ×10⁻⁶ cm/s. Also, the “Papp (AP→BL)” value in the data set on Caco-2 cell monolayer [1] is 24.51 10^−6 cm/s.

With `COc1cc(O)c(CC=C(C)C)c2c1C(=O)CC(c1ccc(O)cc1)O2` (stereo not drawn) [Isoxanthohumol], in the data set on Caco-2 cell monolayer [2], the Mode of translocation result is “active transport”. Further, in “in vitro”, the Papp A→B at 180 min, 100 μg/mL turned out to be 3.5 ×10⁻⁶ cm/s and the Papp B→A at 180 min, 100 μg/mL was found to be 23.2 ×10⁻⁶ cm/s.

With `O=S1(=O)OC(c2ccc(O)cc2)(c2ccc(O)cc2)c2ccccc21` [Phenol red], the “Phenol red flux QBL” value with Caco-2 cell monolayer [3] (cell culture time 3 days) was 4.18 ± 0.43^a μg; in the data set on Caco-2 cell monolayer [3] (cell culture time 6 days), 1.94 ± 0.70^b μg; in the data set with Caco-2 cell monolayer [3] (cell culture time 9 days), 1.36 ± 0.44^bc μg; in the data set with Caco-2 cell monolayer [3] (cell culture time 12 days) it was 0.88 ± 0.15^cd μg; in the data set on Caco-2 cell monolayer [3] (cell culture time 15 days), 0.49 ± 0.21 μg and 0.49 ± 0.21^d μg; with Caco-2 cell monolayer [3] (cell culture time 18 days), 0.40 ± 0.09^d μg. The “Phenol red flux QBL” value with Caco-2 cell monolayer [3] (cell culture time 21 days) is 0.37 ± 0.07^d μg.

With `CC(=O)Oc1ccccc1` [Phenyl acetate], in “in vitro”, the apparent permeability from apical to basolateral (Papp A→B) at 180 min, 100 μg/mL is 8.89 ×10⁻⁶ cm/s and the apparent permeability from basolateral to apical (Papp B→A) at 180 min, 100 μg/mL amounted to 19.4 ×10⁻⁶ cm/s.

In the data set “in vitro”, `O=c1c(-c2ccc(O[C@@H]3O[C@H](CO)[C@@H](O)[C@H](O)[C@H]3O)cc2)coc2cc(O)cc(O)c12` [Sophoricoside] gave an apparent permeability from apical to basolateral (Papp A→B) at 180 min, 100 μg/mL of 1.63 ×10⁻⁶ cm/s and a Papp B→A at 180 min, 100 μg/mL of 9.89 ×10⁻⁶ cm/s.

For orientation: Papp A→B means how fast a substance crosses the layer from the apical side. Lower therefore signals poor permeation. For orientation: Papp B→A means the apparent permeability from the basolateral to the apical side of a cell layer. As a reminder, the efflux ratio is a quotient of directional permeabilities that is used to spot active efflux.
